Structures are written as SMILES. Values joined by “and” are separate entries in the source; they are usually repeats but may differ in a detail not shown here. Equal entries are not always repeated. Where two headings read alike, the source gives them in different places.

Assay [1] addresses T1, rat adrenergic α1B receptor (Rattus norvegicus, UniProt P15823).
T1 construct: rat adrenergic α1B receptor obtained from Wistar Rat liver; from tissue; host or cells: Wistar rat liver
T1 sequence (P15823 1-515): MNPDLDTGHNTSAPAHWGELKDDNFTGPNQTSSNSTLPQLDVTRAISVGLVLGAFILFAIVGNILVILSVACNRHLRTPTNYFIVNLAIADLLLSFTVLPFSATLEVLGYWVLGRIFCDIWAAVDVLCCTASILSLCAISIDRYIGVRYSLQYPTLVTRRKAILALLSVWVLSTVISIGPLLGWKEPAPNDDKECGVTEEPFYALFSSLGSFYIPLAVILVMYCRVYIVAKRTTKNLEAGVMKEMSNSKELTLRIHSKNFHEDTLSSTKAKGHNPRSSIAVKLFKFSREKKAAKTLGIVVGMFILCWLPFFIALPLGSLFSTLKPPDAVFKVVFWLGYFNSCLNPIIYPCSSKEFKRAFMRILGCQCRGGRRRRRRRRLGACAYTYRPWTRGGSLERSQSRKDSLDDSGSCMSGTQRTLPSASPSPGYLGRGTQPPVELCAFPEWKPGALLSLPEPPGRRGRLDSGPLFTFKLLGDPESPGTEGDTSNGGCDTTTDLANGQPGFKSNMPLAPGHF
The assay can be described thus: Radioligand binding, adrenergic α1B ([3H]Prazosin). On the set-up: species or system Wistar Rat. As to the method: To evaluate in radioligand binding assays the activity of compounds of the invention, rat adrenergic α1B receptor obtained from Wistar Rat liver (Garcia-S'ainz, J. et al, Biochem. Biophys. Res. Commun. 186:760, 1992; Michel, A. et al, Br. J. Pharmacol. 98:883, 1989) in a modified Tris-HCl buffer (50 mM Tris-HCl buffer, pH 7.4, 0.5 mM EDTA) was used. Compounds of the invention were incubated with 0.25 nM [^3H]Prazosin for 60 min at 25° C. Non-specific binding was estimated in the presence of 10 μM phentolamine. Receptor proteins were filtered and washed, the filters were then counted to determine [^3H]Prazosin specifically bound. […] Compounds of the invention were tested in this biochemical assay and percent inhibition of specific binding was determined. Biochemical assay results are presented as the percent inhibition of specific binding in Table B1.

Assay [2] has as its target T2, human recombinant adrenergic α2A receptor (Homo sapiens, UniProt P08913).
T2 construct: expressed in transfected cells; host or cells: insect Sf9 cells
T2 sequence (P08913 1-465): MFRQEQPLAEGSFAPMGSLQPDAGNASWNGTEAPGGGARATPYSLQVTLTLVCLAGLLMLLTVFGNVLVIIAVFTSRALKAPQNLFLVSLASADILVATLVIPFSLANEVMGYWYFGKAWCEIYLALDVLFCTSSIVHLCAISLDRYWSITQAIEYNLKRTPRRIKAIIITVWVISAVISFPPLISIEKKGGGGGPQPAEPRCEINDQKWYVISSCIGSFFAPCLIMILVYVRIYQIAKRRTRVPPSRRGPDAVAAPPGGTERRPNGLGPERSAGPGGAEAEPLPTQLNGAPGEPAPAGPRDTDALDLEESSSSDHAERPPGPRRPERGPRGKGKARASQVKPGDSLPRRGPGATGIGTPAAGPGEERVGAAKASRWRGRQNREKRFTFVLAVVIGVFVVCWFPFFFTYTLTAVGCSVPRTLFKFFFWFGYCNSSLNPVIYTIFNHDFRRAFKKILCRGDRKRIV
The assay can be described thus: Radioligand binding, adrenergic α2A ([3H]MK-912). Conditions: [3H]MK-912. As to the method: To evaluate in radioligand binding assays the activity of compounds of the invention, human recombinant adrenergic α2A receptor expressed in insect Sf9 cells (Uhlen, S. et al, J. Pharmacol. Exp. Ther. 271:1558, 1994) in a modified Tris-HCl buffer (50 mM Tris-HCl, pH 7.4, 12.5 mM MgCl2, 2 mM EDTA) was used. Compounds of invention were incubated with 1 nM [^3H]MK-912 for 60 min at 25° C. MK912 is (2S-trans)-1,3,4,5′,6,6′,7,12b-octahydro-1′,3′-dimethyl-spiro[2H-benzofuro[2,3-a]quinolizine-2,4′(1′H)-pyrimidin]-2′(3′H)-one hydrochloride. Non-specific binding was estimated in the presence of 10 μM WB-4101 (2-(2,6-Dimethoxyphenoxyethyl)aminomethyl-1,4-benzodioxane hydrochloride). Receptor proteins were filtered and washed, the filters were then counted to determine [^3H]MK-912 specifically bound. […] Compounds of the invention were tested in this biochemical assay and percent inhibition of specific binding was determined. Biochemical assay results are presented as the percent inhibition of specific binding in Table B1.

The mark [3] stands for this setting: read-out: Percentage inhibition of ligand binding, Adrenergic α1B (0.1 μM), compound at 0.1 μM, repeat datapoints each shown.
The mark [4] stands for this setting: compound at 0.1 μM, repeat datapoints each shown, 0.1 µM.
Where [5] appears, read: 0.1 μM compound, read-out: Percentage inhibition of ligand binding, Adrenergic α2A.
[6] abbreviates: read-out: Percentage inhibition of ligand binding, Adrenergic α2A (0.1 μM), compound at 0.1 μM, repeat datapoints each shown.

Turning to `Cc1ccc2c(c1)c1c(n2CC(N=[N+]=[N-])c2ccncc2)CCN(C)C1` (racemic) [V-1, 5-(2-azido-2-(pyridin-4-yl)ethyl)-2,3,4,5-tetrahydro-2,8-dimethyl-1H-pyrido[4,3-b]indole], the inhibition at 0.1 µM in assay [1] (setting [3]) was found to be 15%.

With `CCC(O)(Cn1c2c(c3cc(C)ccc31)CN(C)CC2)c1ccc(F)cc1` (single isomer, unassigned) [34a], the “Percentage inhibition of ligand binding, Adrenergic α2A (0.1 μM)” value in assay [2] (setting [4]) amounted to 29%. In addition, in assay [1] (setting [4]), the “Percentage inhibition of ligand binding, Adrenergic α1B (0.1 μM)” value stood at 11%.

`Cc1ccc2c(c1)c1c(n2CC(O)c2ccncc2)CCN2CCCC12` (single isomer, unassigned) [129a]: the “Percentage inhibition of ligand binding, Adrenergic α2A” value in assay [2] (0.1 μM compound, 0.1 µM) stood at 46%. Also, the “Percentage inhibition of ligand binding, Adrenergic α1B” value in assay [1] (0.1 μM compound, 0.1 µM) was determined as 73%.

On to `Cc1ccc2c(c1)c1c(n2CC(O)c2ccncc2)CCN2CCCC12` (single isomer, unassigned) [129b], for which the “Percentage inhibition of ligand binding, Adrenergic α2A” value in assay [2] (0.1 μM compound, 0.1 µM) turned out to be 55%. Besides, the “Percentage inhibition of ligand binding, Adrenergic α1B” value in assay [1] (0.1 μM compound, 0.1 µM) is reported as 69%.

Turning to `Cc1ccc2c(c1)c1c(n2CC(O)c2ccncc2)CCN2CCCC12` (single isomer, unassigned) [129c], the inhibition at 0.03 µM in assay [2] (0.03 μM compound, read-out: Percentage inhibition of ligand binding, Adrenergic α2A) worked out at 14%. Besides, the inhibition at 0.1 µM in assay [2] (setting [5]) came out at 29%.

As to `Cc1ccc2c(c1)c1c(n2CC(OC(=O)C(C)(C)C)c2ccncc2)CCN(C)C1` (single isomer, unassigned) [130b], the “Percentage inhibition of ligand binding, Adrenergic α2A” value worked out at 13% in assay [2] (0.03 μM compound, 0.03 µM) and 31% in assay [2] (0.1 μM compound, 0.1 µM). The “Percentage inhibition of ligand binding, Adrenergic α1B” value in assay [1] (0.03 μM compound, 0.03 µM) is 2%; in assay [1] (0.1 μM compound, 0.1 µM), 8% and 11%.

Regarding `CN1CCc2c(c3cc(Cl)ccc3n2CC(C)(O)c2ccc(C(F)(F)F)nc2)C1` (single isomer, unassigned) [143a], the “Percentage inhibition of ligand binding, Adrenergic α1B” value in assay [1] (0.1 μM compound, 0.1 µM) stood at 43%.

In the case of `Cc1ccc2c(c1)c1c(n2CC(c2ccncc2)N(C)C)CCN(C)C1` (single isomer, unassigned) [150b], the “Percentage inhibition of ligand binding, Adrenergic α2A” value in assay [2] (0.1 μM compound, 0.1 µM) came to 5%. Also, the “Percentage inhibition of ligand binding, Adrenergic α1B” value in assay [1] (0.1 μM compound, 0.1 µM) stood at 7%.

Consider `Cc1ccc2c(c1)c1c(n2CC(c2ccncc2)N2CCCC2)CCN(C)C1` (single isomer, unassigned) [152a], for which, in assay [2] (0.1 μM compound), the “Percentage inhibition of ligand binding, Adrenergic α2A” value is listed as 17%.

In the case of `Cc1ccc2c(c1)c1c(n2CC(c2ccncc2)N2CCCC2)CCN(C)C1` (single isomer, unassigned) [152b], in assay [1] (0.1 μM compound), the “Percentage inhibition of ligand binding, Adrenergic α1B” value is 7%.

As to `Cc1ccc2c(c1)c1c(n2CC(N)c2ccncc2)CC2CCC1N2C` (single isomer, unassigned) [155a], in assay [2] (0.1 μM compound, 0.1 µM), the “Percentage inhibition of ligand binding, Adrenergic α2A” value is listed as −1%.

As to `CN1CCc2c(n(CC(O)c3ccc(F)c(F)c3)c3ccc(Cl)cc23)CC1` (single isomer, unassigned) [339a], in assay [2] (compound at 0.1 μM, 0.1 µM), the “Percentage inhibition of ligand binding, Adrenergic α2A” value turned out to be 37%. Besides, the “Percentage inhibition of ligand binding, Adrenergic α1B” value in assay [1] (compound at 0.1 μM) turned out to be 13%.

`CN1CCc2c(n(CC(O)c3ccc(F)c(F)c3)c3ccc(Cl)cc23)CC1` (single isomer, unassigned) [339b]: the “Percentage inhibition of ligand binding, Adrenergic α2A” value in assay [2] (compound at 0.1 μM, 0.1 µM) amounted to 64%.

Regarding `OCCN1CCc2c(c3cc(Cl)ccc3n2CC(O)c2ccncc2)C1` (single isomer, unassigned) [II-93b], in assay [2] (compound at 0.1 μM, 0.1 µM), the “Percentage inhibition of ligand binding, Adrenergic α2A” value is recorded as 4%.

Turning to `CC(O)(Cn1c2c(c3cc(Cl)ccc31)CN(C1CCC1)CC2)c1cccnc1` (single isomer, unassigned) [II-118a], the “Percentage inhibition of ligand binding, Adrenergic α2A (0.1 μM)” value in assay [2] (setting [4]) was 3%.

In the case of `Cc1ccc2c(c1)c1c(n2CC(C)(O)c2cccnc2)C(O)CN(C)C1` (single isomer, unassigned) [II-151a], the “Percentage inhibition of ligand binding, Adrenergic α1B (0.1 μM)” value in assay [1] (setting [4]) is listed as 11%.

For `CC(O)(Cn1c2c(c3cc(Cl)cnc31)C1CCCN1CC2)c1cccnc1` (single isomer, unassigned) [IV-210a], the “Percentage inhibition of ligand binding, Adrenergic α1B (0.03 μM)” value in assay [1] (compound at 0.03 μM, repeat datapoints each shown) is 43%.

For the compound `Cc1ccc2c(c1)c1c(n2CC(O)c2ccc(F)cc2)CCN(C)C1` (stereo not shown) [30a], the “Percentage inhibition of ligand binding, Adrenergic α1B (0.1 μM)” value in assay [1] (setting [4]) was found to be 57%.

As to `Cc1ccc2c(c1)c1c(n2CC(O)c2ccc(C#N)cc2)CCN(C)C1` (stereo not shown) [142b], the “Percentage inhibition of ligand binding, Adrenergic α2A” value in assay [2] (0.1 μM compound) is reported as 63%.

On to `C/C(=C\n1c2c(c3cc(C)ccc31)C1CCCN1CC2)c1ccc(C)nc1` (stereo not shown) [193a, 10-methyl-7-(2-(6-methylpyridin-3-yl)prop-1-enyl)-2,3,5,6,7,11c-hexahydro-1H-indolizino[7,8-b]indole], for which the inhibition at 0.1 µM in assay [2] (setting [5]) was found to be 85%; in assay [1] (0.1 μM compound, read-out: Percentage inhibition of ligand binding, Adrenergic α1B), 89%.

Take `Cc1ccc2c(c1)c1c(n2C(C)C(O)c2ccncc2)CCN(C)C1` (stereo not shown) [II-98a]: the “Percentage inhibition of ligand binding, Adrenergic α2A” value in assay [2] (compound at 0.1 μM) was 12%. The “Percentage inhibition of ligand binding, Adrenergic α1B” value in assay [1] (compound at 0.1 μM) was 33%.

Consider `Cc1ccc2c(c1)c1c(n2CC(O)c2cn[nH]c2)CCN(C)C1` (stereo not shown) [II-106a], for which the “Percentage inhibition of ligand binding, Adrenergic α1B” value in assay [1] (compound at 0.1 μM) came out at 25%.

In the case of `CN1CCc2c(c3cc(Cl)ccc3n2CC(O)c2cccnc2)C1` (stereo not shown) [compound 7], in assay [2] (setting [6]), the inhibition at 0.1 µM is 16%.

Take `Cc1ccc2c(c1)c1c(n2CC(O)c2ccc(F)cc2)CCN(C)C1` (stereo not shown) [compound 30]: the values for the inhibition at 0.1 µM in assay [2] (setting [6]) and in assay [1] (setting [3]) were 63% and 86%, respectively.

For the compound `Cc1cnc2c(c1)c1c(n2CCc2ccc(C)nc2)CCN2CCCC12` (stereo not shown) [compound 74, 10-methyl-7-(2-(6-methylpyridin-3-yl)ethyl)-2,3,5,6,7,1c-hexahydro-1H-pyrido[3′,2′:4,5]pyrrolo[2,3-g]indolizine], in assay [1] (setting [3]), the inhibition at 0.1 µM was found to be 81%.

For orientation: inhibition means the percentage by which the read-out fell short of the control.

The record behind these values is patent US9550782B2, “Compounds and methods for treating diabetes” (Medivation Technologies, Inc., priority 2011, dated 2017).
